Measurements published in patent publication US20120245123A1, “METHODS FOR IMPROVING BONE HEALTH IN INFANTS USING PREBIOTICS” (ABBOTT LABORATORIES, priority 2011, published 2012).

How the values were obtained:
[1] = tested on: skeleton of rat offspring (whole body, femur, tibia, lumbar vertebra); assay: pDEXA densitometry of BMD and BMC in rat offspring after maternal diet supplementation; assay type: in vivo, Sprague-Dawley rats; conditions: for lumbar vertebra BMC with respect to Control group / lumbar vertebra BMD with respect to Control group: adolescent offspring (90-day-old)
Method: Fifty 10-week-old pregnant Sprague-Dawley rats at the eleventh day of gestation (Charles Rivers Laboratories, Orleans Cedex, France) are housed under standardized environmental conditions (22° C., relative humidity of 50%, artificial lighting on for 12 hours/day) and are given free access to deionized water during the test period. The rats are randomly divided into five groups of feeding (n=10/group): (1) Control Group (“Control”), who receives a standard purified rodent diet (SPRD); […] (3) Prebiotic group (“Prebiotic”), who receives the SPRD containing 7.5% of the total carbohydrate as inulin-type fructans (Synergy-1®, Orafti, Belgium); […] During their suckling period, the pups receive only the dam's milk. […] Sacrifices of rat pups are carried out at birth, weaning and at the end of the adolescence period. The whole bone mineral density (BMD) and bone mineral content (BMC) of the skeleton are measured at birth and at weaning by using a pDEXA densitometer (Norland Corp., Fort Atkinson, Wis., USA). In adolescent offspring, the determination of BMC and BMD are analyzed in isolated bones (femur, tibia and vertebrae). Determination of the trabecular architecture parameters (trabecular thickness, separation and number), bone length and bone volume fraction (BV/TV) is analyzed by Micro-computed tomography (micro-CT). Micro-CT analysis is carried out by the Bone & Joint Research Group (University of Southampton, UK) and cortical parameters are performed by SCANCO Medical AG (Bruttisellen, Switzerland). DEXA scan is a technique used in the clinical practice for the analysis of bone health. Two main bone properties can be measured by this technique: Bone Mineral Content (BMC) and areal Bone Mineral Density (BMD). BMC determines the mass of mineral present in the whole body or in the selected skeletal region. BMC changes reflect the result of the metabolic “mass” balance between bone formation and bone destruction. BMC represented relative to the projected bone area refers to BMD. BMD represents the […] present in the bone region studied. […] The manufacturer's software for research in small animals calculates BMC and BMD for the isolated bone. Femur is measured from the femoral neck to the knee joint. Tibia is measured from the knee joint to the joint between tibia and calcaneus, also including fibula. […] Results are expressed as mean±SEM, and the probability level at which the differences are considered significant is set at p<0.05. One-way ANOVA is used to evaluate differences attributable to the diet in the different markers, previously testing the homogeneity of variances by Levene's. A posteriori post hoc tests are carried out by the Dunnet test.

[2] = tested on: femur, tibia and lumbar vertebra of rat offspring; assay: Micro-CT of trabecular and cortical bone architecture in rat offspring after maternal diet supplementation; assay type: in vivo, Sprague-Dawley rats
Method: Fifty 10-week-old pregnant Sprague-Dawley rats at the eleventh day of gestation (Charles Rivers Laboratories, Orleans Cedex, France) are housed under standardized environmental conditions (22° C., relative humidity of 50%, artificial lighting on for 12 hours/day) and are given free access to deionized water during the test period. The rats are randomly divided into five groups of feeding (n=10/group): (1) Control Group (“Control”), who receives a standard purified rodent diet (SPRD); […] (3) Prebiotic group (“Prebiotic”), who receives the SPRD containing 7.5% of the total carbohydrate as inulin-type fructans (Synergy-1®, Orafti, Belgium); […] During their suckling period, the pups receive only the dam's milk. […] Sacrifices of rat pups are carried out at birth, weaning and at the end of the adolescence period. The whole bone mineral density (BMD) and bone mineral content (BMC) of the skeleton are measured at birth and at weaning by using a pDEXA densitometer (Norland Corp., Fort Atkinson, Wis., USA). In adolescent offspring, the determination of BMC and BMD are analyzed in isolated bones (femur, tibia and vertebrae). Determination of the trabecular architecture parameters (trabecular thickness, separation and number), bone length and bone volume fraction (BV/TV) is analyzed by Micro-computed tomography (micro-CT). Micro-CT analysis is carried out by the Bone & Joint Research Group (University of Southampton, UK) and cortical parameters are performed by SCANCO Medical AG (Bruttisellen, Switzerland). Micro-computed tomography (micro-CT) is a technique for the nondestructive assessment and analysis of the three-dimensional trabecular and cortical bone structural properties. Scanning with micro-CT can be achieved at resolutions as low as 5 μm, allowing for the determination of porosities and subtle modeling and remodeling events of the bone tissue. Furthermore, true three-dimensional image reconstructions permit the assessment of bone microarchitecture as a three dimensional structure, providing critical information to images collected through histomorphometry. In the present Example, femoral, tibia and vertebra cancellous bones are assessed using Metris (XTek) Benchtop 160Xi CT scanner (University of Southampton) and vertebra cortical bone is assessed using MicroCT-40 computed tomography system (Scanco Medical, Basserdorf, Switzerland). […] Micro-CT analysis also allows for the determination of various quality properties of the cortical bone. The bone fragility is influenced not only by the architecture but also by the tissue “quality”. The strength of a bone as an organ depends on the material properties of bone as a tissue. Stiffness, or the resistance of the whole bone to deformation by a load, is a key material property and requires a destructive mechanical technique if measurements are done in vivo. The non-destructive analysis of the volumetric bone mineral density of cortical bone (cortical vBMD) by micro CT has an approximately linear relationship with the stiffness of the cortical bone. Cortical thickness (C.Th) is one of the variables that helps to evaluate the modeling-derived changes provoked by growth. The cortical porosity (C.Sp) reflects the intracortical remodeling in the bone. Remodeling, that occurs in the surfaces of bone, could be enhanced if the pore size becomes larger and, therefore, with the increase of the cortical porosity. An increment on cortical porosity weakens the bone and decreases the bone strength. Results are expressed as mean±SEM, and the probability level at which the differences are considered significant is set at p<0.05. One-way ANOVA is used to evaluate differences attributable to the diet in the different markers, previously testing the homogeneity of variances by Levene's. A posteriori post hoc tests are carried out by the Dunnet test.

[3] = adolescent offspring (90-day-old)

Compound	lumbar vertebra BMC with respect to Control group [1]	lumbar vertebra BMD with respect to Control group [1]	vertebra BV/TV enhanced in comparison with Control group [2, 3] [%]	vertebra cortical porosity, effect [2, 3]	vertebra cortical vBMD, effect [2, 3]	vertebra trabecular separation respective to Control group [2, 3]	vertebra trabecular thickness enhanced in comparison with Control group [2, 3] [%]	vertebrae cortical thickness, effect [2, 3]	trabecular number of femur and tibia respective to Control group ([2]; pups at delivery)	trabecular separation of femur and tibia respective to Control group ([2]; pups at delivery)	trabecular thickness of femur and tibia respective to Control group ([2]; pups at delivery)	increase in vertebra trabecular thickness respective to Control group ([2]; pups at weaning) [%]	vertebra BV/TV ratio respective to Control group ([2]; pups at weaning)	vertebra trabecular separation respective to Control group ([2]; pups at weaning)	whole body BMC relative to Control group ([1]; pups at weaning)	cortical features of the vertebra [2, 3]	vertebra BV/TV, effect versus Control group [2, 3]	vertebra trabecular thickness, effect versus Control group [2, 3]
O=C([O-])[O-].[Ca+2] [Calcium, calcium carbonate]	no differences	no differences	22	decrease	increase	significant decrease	17	without significantly affecting	greater	decrease in the trabecular separation, although statistical differences are not achieved	lower	~30	statistically different	statistically different	–	–	–	–
Vitamin D	no differences	no differences	–	–	–	–	–	–	–	–	–	–	–	–	lower	does not show any improvement	No effect	No effect
